Data reported in ChEMBL document CHEMBL3227956 (J Med Chem, 1979).

Legend:
Mus musculus [1] = assay: Toxicity in mouse allografted with mouse L1210 cells assessed as survival rate at 250 mg/kg, ip administered on day 1 measured on day 30 relative to control; format: organism-based; set-up: dose 250 mg/kg, route intraperitoneal; conditions: in vivo
W256 [2] = assay: Cytotoxicity against rat Walker 256 cells assessed as growth inhibition in absence of microsomal activation; conditions: W256, read-out: ID50
[3] = Therapeutic index, ratio of LD50 for mouse allografted with mouse ADJ/PC6 cells to ED90 for mouse ADJ/PC6 cells allografted in mouse
W256 [4] = assay: Cytotoxicity against rat Walker 256 cells assessed as growth inhibition in presence of microsomal activation; conditions: W256, read-out: ID50
[5] = Toxicity in mouse allografted with mouse ADJ/PC6 cells
ADJ/PC6 = assay: Antitumor activity against mouse ADJ/PC6 cells allografted in mouse
[6] = Hydrolytic stability in D2O/Me2SO-d6 assessed as formation of 3-ammonio-2-bromopropyl phenylphosphonate at 37 degC after 24 hrs by NMR analysis; format: physicochemical
Mus musculus [7] = assay: Toxicity in mouse allografted with mouse L1210 cells assessed as survival rate at 150 mg/kg, ip administered on day 1 measured on day 30 relative to control; format: organism-based; set-up: dose 150 mg/kg, route intraperitoneal; conditions: in vivo
L1210 [8] = assay: Antitumor activity against mouse L1210 cells allografted in mouse assessed as increase in survival rate at 150 mg/kg, ip administered on day 1 measured on day 30 relative to control; format: functional; conditions: route intraperitoneal
L1210 [9] = assay: Antitumor activity against mouse L1210 cells allografted in mouse assessed as increase in survival rate at 62.5 mg/kg, ip administered on day 1 measured on day 30 relative to control; format: functional; conditions: route intraperitoneal
Mus musculus [10] = assay: Toxicity in mouse allografted with mouse L1210 cells assessed as survival rate at 500 mg/kg, ip administered on day 1 measured on day 30 relative to control; format: organism-based; set-up: dose 500 mg/kg, route intraperitoneal; conditions: in vivo
L1210 [11] = assay: Antitumor activity against mouse L1210 cells allografted in mouse assessed as increase in survival rate at 500 mg/kg, ip administered on day 1 measured on day 30 relative to control; format: functional; conditions: route intraperitoneal
[12] = Hydrolytic stability in deuteriochloroform; format: physicochemical
[13] = Hydrolytic stability in CDCl3 assessed as formation of 3-ammonio-2-bromopropyl phenylphosphonate measured within 2 hrs by NMR analysis; format: physicochemical
Mus musculus [14] = assay: Toxicity in mouse allografted with mouse L1210 cells assessed as survival rate at 62.5 mg/kg, ip administered on day 1 measured on day 30 relative to control; format: organism-based; set-up: dose 62.5 mg/kg, route intraperitoneal; conditions: in vivo

SMILES: O=P1(N(CCCl)CCCl)NCCCO1 (racemic) [CYCLOPHOSPHAMIDE ANHYDROUS]
- Activity (Mus musculus [1]): Non-toxic
- IC50 (W256 [2]): > 500 µg/mL
- selectivity ratio [3]: 95
- IC50 (W256 [4]): 0.5 µg/mL
- LD50 [5]: 450 mg/kg
- ED90 (ADJ/PC6): 4.75 mg/kg

SMILES: O=P1(Oc2ccccc2)NCC(Br)CO1 (stereo not drawn)
- Stability [6]: Stable

SMILES: [O-][P@@+]1(Oc2ccccc2)NC[C@H](Br)CO1 (racemic)
- Activity (Mus musculus [7]): Non-toxic
- T/C (L1210 [8]): 113%

SMILES: O=P1(N2CC2)OCCCN1CCCl (stereo not drawn)
- T/C (L1210 [9]): 110%

SMILES: O=P12OCCCN1CCN2CCCl (stereo not drawn)
- Activity (Mus musculus [10]): Non-toxic
- T/C (L1210 [11]): 105%

SMILES: O=P1(c2ccccc2)NCC(Br)CO1 (stereo not drawn)
- Stability [12]: Stable
- Stability [13]: Unstable
- Stability [6]: Unstable

SMILES: [O-][P@@+]1(c2ccccc2)NC[C@@H](Br)CO1 (single isomer, unassigned; fast eluting)
- Activity (Mus musculus [1]): Non-toxic

SMILES: [O-][P@@+]1(Oc2ccccc2)NC[C@@H](Br)CO1 (single isomer, unassigned; fast eluting)
- Activity (Mus musculus [14]): Non-toxic
- T/C (L1210 [9]): 107%
